Here are results for seven molecules from patent publication EP1676575A2, “MUCIN PRODUCTION INHIBITOR” (TAIHO PHARMACEUTICAL COMPANY LIMITED, priority 2003, dated 2005).

One experiment has as its system NCI-H292 cells. As to the kind of experiment: Mucin production inhibitory action (EGF-stimulated NCI-H292 cells, mucin in culture supernatant by ELISA). The class given is cell-based, human. The conditions noted are these: for inhibition at 1 µM / inhibition at 3 µM / inhibition at 10 µM: Homo sapiens, EGF 25 ng/mL, 48 hours, NCI-H292 cells, read-out: Percent inhibition of mucin production (%); for inhibition at 1 µM: Concentration 1 µM; for inhibition at 3 µM: Concentration 3 µM; for inhibition at 10 µM: Concentration 10 µM; for production of mucin (effect in words): summary of Table 1, EGF-stimulated NCI-H292 cells. The method, then:
The test was carried out in accordance with a partially modified method of Takeyama et al. (Proc. Natl. Acad. Sci. USA, Vol. 96, P. 3081-3086, 1999). The specific procedure will be described as follows. NCI-H292 cells, which are human respiratory tract epithelial cell lines, were suspended in a 10%FCS-containing RPMI 1640 culture medium, and disseminated to a 12-well culture plate so that the cell concentration of each well was adjusted to 2 x 10^5 cell/well, followed by culturing for two days. Subsequently, the culture medium was changed to a 0.2%FCS-containing RPMI culture medium, followed by culturing for another two days. The thus-cultured cells were employed in the test. Each test drug and EGF (25 ng/mL) were added to each well, and the mucin level of the supernatant of the culture 48 hours after initiation of culturing was determined through the ELISA method. Percent inhibition (%) with regard to control value was calculated by supposing the difference produced by subtracting normal value from control value to be 100%. In this case, the control value is defined as the mucin amount in the culture supernatant to which only EGF was added, while the normal value is defined as the muchin amount in the culture supernatant containing neither of test drug and EGF. In addition, cilomilast (J. Pharmacol. Exp. Ther., Vol. 284, p. 420-426, 1998) and roflumilast (J. Pharmacol. Exp. Ther., Vol. 297, p. 267-279, 2001), which are typical phosphodiesterase (IV) inhibitors were also tested in a similar manner.

The subject of experiment [1] is goblet cells in the respiratory tract epithelium. As to the kind of experiment: Inhibitory effect on hyperplasia of goblet cells in the respiratory tract epithelium (Sephadex-induced, PAS staining). The class given is in vivo, Lewis Wistar rats. Conditions: Fig. 1; oral, once per day for seven days; Sephadex-treated rats; numbers only in the figure. The method, then:
The test was carried out in accordance with a partially modified method of Matsubara et al. (Int. Arch. Allergy Immunol., Vol. 116, p. 67-75, 1998). The specific procedure will be described as follows. To each of the 7-week old male Lewis Wistar rats, a Sephadex suspension (0.1 mg/mL/head) was intravenously administered (total three times: day 0, 2, and 5). Two days after the final administration, the rat was slaughtered by exsanguination under anesthetic with pentobarbital. The lung tissue was extirpated from the rat and immersed in a neutral formalin buffer for fixation. […] The ratio of the PAS-stained positive area to the respiratory tract epithelium was calculated by use of an image analysis software (Winroof). Each test compound was suspended in 0.5% hydroxypropylmethyl cellulose (HPMC), and the suspension was orally administered once per day for continuous seven days from the start of administration of Sephadex. In the Figure, numerical data are represented by mean value ± standard deviation (each group: 11-12 samples).

A further experiment has as its system Brown Norway rats. As to the kind of experiment: Inhibitory effect on hyper-secretion of respiratory tract mucus (LPS-induced, mucus in BALF by UEA-1 lectin assay). The class given is in vivo. The conditions noted are these: mean ± standard deviation; for Mucus level of BALF: LPS 100 µg intratracheal, 6 samples; for Percent inhibition (% ): mucus level of BALF vs control and normal. The method, then: The procedure of the test was based on a partially modified method of Tesfaigzi et al. (Am. J. Physiol. Lung Cell Mol. Physiol., Vol. 279, p. L1210-L1217, 2000). The specific procedure will be described as follows. To each of the 7-week male Brown Norway rats, LPS (derived from E. coli., strain 0111: B4) 100 µg was intratracheally administered under anesthetic with ether, thereby inducing inflammation. Two days after administration of LPS, the rat was slaughtered under anesthetic with pentobarbital, and the extirpated respiratory tract was washed with PBS containing 5mM EDTA and 5mM dithiothreitol (3 mL). The amount of mucus contained in the collected BALF was determined through a lectin assay method employing UEA-1. Each test drug was suspended in a 0.5% HPMC, and the suspension was orally administered one hour before administration of LPS and on the following day. In Table 2, numerical data are represented by mean value ± standard deviation (each group: 6 samples). Percent inhibition (%) was calculated in the same way as in Test Example 1.

As usually defined, the inhibition is the relative decrease from the control value, in per cent. As to `O=C(Nc1c(Cl)cncc1Cl)c1ccc(OC(F)F)c(OCC2CC2)c1` [Roflumilast, roflumilast, reference compound], in the experiment with NCI-H292 cells, the inhibition at 1 µM was -37.4%, the inhibition at 3 µM was -28.7%, the inhibition at 10 µM is -16.8% and the “production of mucin (effect in words)” value is “promoted production of mucin”.
Regarding `COc1ccc(-c2nc3cc(-n4cncn4)ccc3[nH]2)cc1OCC(C)C` [Compound 6], in the experiment on NCI-H292 cells, the inhibition at 1 µM was 15.4%, the inhibition at 3 µM turned out to be 51.4% and the inhibition at 10 µM was found to be 102%.
On to `COc1ccc(-c2nc3cc(-n4cncn4)ccc3[nH]2)cc1OCC1CC1` [Compound 1], for which, in the experiment with NCI-H292 cells, the inhibition at 1 µM came to 18.1%, the inhibition at 3 µM was 49.4% and the inhibition at 10 µM was determined as 88.6%. For the same molecule, the “hyperplasia of goblet cells (effect in words)” value in experiment [1] is listed as “inhibitory effect”. In the experiment with Brown Norway rats (10 mg/kg oral), the “Mucus level of BALF” value stood at 202.4 ± 93.1 ng/mL and the “Percent inhibition (% )” value is recorded as 53.2 ± 25.7%. Besides, in the experiment with Brown Norway rats (30 mg/kg oral), the “Mucus level of BALF” value worked out at 166.6 ± 43.6 ng/mL and the “Percent inhibition (% )” value worked out at 63.0 ± 12.0%.
Consider `COc1ccc(-c2nc3cc(-n4cncn4)ccc3[nH]2)cc1OC1CCCC1` [Compound 2], for which, in the experiment with NCI-H292 cells, the inhibition at 1 µM was found to be 57.1%, the inhibition at 3 µM amounted to 53.3% and the inhibition at 10 µM turned out to be 80.8%.
In the same order, the values of `COc1ccc(-c2nc3cc(-n4cncn4)ccc3[nH]2)cc1OC` [Compound 3] are 60%, 74.9% and 83.9%.
In the case of `COc1cc(-c2nc3cc(-n4cncn4)ccc3[nH]2)ccc1OCC1CC1` [Compound 4], in the experiment on NCI-H292 cells, the inhibition at 1 µM was 22.7% and the inhibition at 3 µM was found to be 48.8%.
Take `COc1ccc([C@]2(C#N)CC[C@@H](C(=O)O)CC2)cc1OC1CCCC1` [Cilomilast, cilomilast, reference compound]: in the experiment on NCI-H292 cells, the inhibition at 1 µM was -21.4%, the inhibition at 3 µM was -17.2%, the inhibition at 10 µM was -35.2% and the “production of mucin (effect in words)” value is recorded as “promoted production of mucin”.
